Several values for one entry are separate records, joined by “and”; a condition that tells them apart may be missing. Equal entries are not always repeated.
What was measured:
Type in all cases: in vivo
Swiss albino mice [1] = experiment: Acetic acid-induced writhing test; conditions: for Writhes, individual values: single animals, listed as Comp 1; for % analgesic activity (writhing inhibition) / Mean writhes: oral
Experimental: An anti-nociceptive assessment was performed on Swiss albino mice of both sexes, sourced from the National Institute of Health, Islamabad, Pakistan. […] Mice of either sex were divided into different groups, with five mice in each group. The test samples were carefully administered orally, with doses of 250, 500, 1000, and 2000 mg/kg.
I. rugosus was evaluated for its analgesic potential through an acetic acid-induced writhing test. Oral administration of the test samples was carried out using specified doses. After 30 min of interval, 10 ml/kg of acetic acid (0.6%) was injected into the mice. Group I served as the control and received 0.5% Tween-80 (3 ml/kg), group II received diclofenac sodium (10 mg/kg), and groups III and IV received test compounds. The count of writhes was recorded between 5 and 30 min, following the i/p injection of acetic acid ([Franzotti et al., 2000]).

Swiss albino mice [2] = experiment: Hot plate test with opioid receptor involvement; conditions: for Reaction time on hot plate, individual values: single animals; for Reaction time on the hot plate: compounds 50 mg/kg, Mor 5 mg/kg, Nal 1 mg/kg
mice = experiment: Carrageenan-induced paw edema; conditions: for % edema volume inhibition (mean): aspirin 10 mg/kg; for Paw edema percent inhibition, individual values / Paw edema, individual values: single animals
Experimental: The animals under study were divided into different groups. Prior to the experiment, the animals had only access to water. […] Additionally, the isolated compounds being tested were given 30 min before injecting 0.05 ml of 1% carrageenan into the sub-plantar region of the paw. To measure the volume changes in the paw, a digital plethysmometer was employed. Readings were taken before and after the carrageenan injection at hourly intervals over a total period of 5 h.

O=C(O)C=Cc1ccc(O)c(O)c1 [Compound 1, 3,4-dihydroxy-cinnamic acid]
Writhes, individual values (Swiss albino mice [1]; 10mg): 60 and 58.9 and 55.1
Writhes, individual values (Swiss albino mice [1]; 20mg): 50.1 and 48.2 and 49.71
Writhes, individual values (Swiss albino mice [1]; 25mg): 45.64 and 46.56 and 47.8
Writhes, individual values (Swiss albino mice [1]; 50mg): 22.1 and 23.29 and 24.51
% analgesic activity (writhing inhibition) (Swiss albino mice [1]; dose 10 mg/kg): 05.10% and 05.10^ns %
% analgesic activity (writhing inhibition) (Swiss albino mice [1]; dose 20 mg/kg): 19.88% and 19.88^ns %
Mean writhes (Swiss albino mice [1]; dose 20 mg/kg): 49.33 ± 0.87
Mean writhes (Swiss albino mice [1]; dose 20 mg/kg, listed as Comp 1, 20 mg/kg): 49.3367
% analgesic activity (writhing inhibition) (Swiss albino mice [1]; dose 25 mg/kg): 24.78%
Mean writhes (Swiss albino mice [1]; dose 25 mg/kg): 46.67 ± 0.87
Mean writhes (Swiss albino mice [1]; dose 25 mg/kg, listed as Comp 1, 25 mg/kg): 46.6667
% analgesic activity (writhing inhibition) (Swiss albino mice [1]; dose 50 mg/kg): 62% and 61.90%
Mean writhes (Swiss albino mice [1]; dose 50 mg/kg): 23.30 ± 0.62
Mean writhes (Swiss albino mice [1]; dose 50 mg/kg, listed as Comp 1, 50 mg/kg): 23.3
Reaction time on hot plate, individual values (Swiss albino mice [2]; at 15, listed as Comp-1): 8.02 and 7.34 and 9.3
Reaction time on hot plate, individual values (Swiss albino mice [2]; at 30, listed as Comp-1): 7.19 and 7.2 and 7.18
Reaction time on hot plate, individual values (Swiss albino mice [2]; at 45, listed as Comp-1): 6.4 and 7.3 and 6.26
Reaction time on hot plate, individual values (Swiss albino mice [2]; at 60, listed as Comp-1): 8.1 and 9.57 and 7.46
Reaction time on hot plate, individual values (Swiss albino mice [2]; at 90, listed as Comp-1): 6.12 and 7.38 and 8.02
Reaction time on the hot plate (Swiss albino mice [2]; at 15 min): 08.22 ± 0.07 s
Reaction time on the hot plate (Swiss albino mice [2]; at 15 min, listed as Comp-1): 8.22 s
Reaction time on the hot plate (Swiss albino mice [2]; at 15 min, listed as compound 1): 08.22 ± 0.07 s
Reaction time on the hot plate (Swiss albino mice [2]; at 30 min): 07.19 ± 0.08 s
Reaction time on the hot plate (Swiss albino mice [2]; at 30 min, listed as Comp-1): 7.19 s
Reaction time on the hot plate (Swiss albino mice [2]; at 30 min, listed as compound 1): 07.19 ± 0.08 s
Reaction time on the hot plate (Swiss albino mice [2]; at 45 min): 6.65 ± 0.05 s
Reaction time on the hot plate (Swiss albino mice [2]; at 45 min, listed as Comp-1): 6.653 s
Reaction time on the hot plate (Swiss albino mice [2]; at 45 min, listed as compound 1): 6.65 ± 0.05 s
Reaction time on the hot plate (Swiss albino mice [2]; at 60 min): 8.38 ± 0.41 s
Reaction time on the hot plate (Swiss albino mice [2]; at 60 min, listed as Comp-1): 8.377 s
Reaction time on the hot plate (Swiss albino mice [2]; at 60 min, listed as compound 1): 8.38 ± 0.41 s
Reaction time on the hot plate (Swiss albino mice [2]; at 90 min): 7.17 ± 0.57 s
Reaction time on the hot plate (Swiss albino mice [2]; at 90 min, listed as Comp-1): 7.173 s
Reaction time on the hot plate (Swiss albino mice [2]; at 90 min, listed as compound 1): 7.17 ± 0.57 s
% edema volume inhibition (mean) (mice; 1st hour after carrageenan): 48.042%
% edema volume inhibition (mean) (mice; 2nd hour after carrageenan): 54.02%
% edema volume inhibition (mean) (mice; 3rd hour after carrageenan): 54.008%
% edema volume inhibition (mean) (mice; 4th hour after carrageenan): 56.40 ± 0.42%
% edema volume inhibition (mean) (mice; 4th hour after carrageenan, listed as Comp 1): 56.094%
% edema volume inhibition (mean) (mice; 5th hour after carrageenan): 53.076%
paw edema inhibition (mice; at various intervals): > 50%
Paw edema percent inhibition, individual values (mice; hour 1, listed as Comp 1): 50.39% and 48.96% and 47.65% and 47.13% and 46.08%
Paw edema, individual values (mice; hour 1, listed as Comp 1): 0.38 and 0.391 and 0.401 and 0.405 and 0.413
Paw edema percent inhibition, individual values (mice; hour 2, listed as Comp 1): 53.99% and 52.64% and 55.48% and 52.1% and 55.89%
Paw edema, individual values (mice; hour 2, listed as Comp 1): 0.34 and 0.35 and 0.329 and 0.354 and 0.326
Paw edema percent inhibition, individual values (mice; hour 3, listed as Comp 1): 54.46% and 55.39% and 53.53% and 52.73% and 53.93%
Paw edema, individual values (mice; hour 3, listed as Comp 1): 0.342 and 0.335 and 0.349 and 0.355 and 0.346
Paw edema percent inhibition, individual values (mice; hour 4, listed as Comp 1): 56.75% and 58.72% and 56.09% and 54.78% and 54.13%
Paw edema, individual values (mice; hour 4, listed as Comp 1): 0.33 and 0.315 and 0.335 and 0.345 and 0.35
Paw edema percent inhibition, individual values (mice; hour 5, listed as Comp 1): 54.17% and 56.22% and 50.75% and 53.76% and 50.48%
Paw edema, individual values (mice; hour 5, listed as Comp 1): 0.335 and 0.32 and 0.36 and 0.338 and 0.362

From publication PMC10897015, “Investigation of anti-nociceptive, anti-inflammatory potential and ADMET studies of pure compounds isolated from Isodon rugosus Wall. ex Benth” (Frontiers in Pharmacology, 2024)
